What follows are molecules tested against T1, human PTH1 receptor (Homo sapiens, UniProt Q03431) (assay: In vitro cAMP signal activity in HKRK-B7 cells (LLC-PK1 cells overexpressing the human PTH1 receptor)). Details: HKRK-B7 cells; compound at 1×10^−3 M; cAMP produced as percentage of that produced by hPTH(1-34) at 100 nM.
T1 sequence (Q03431 27-593): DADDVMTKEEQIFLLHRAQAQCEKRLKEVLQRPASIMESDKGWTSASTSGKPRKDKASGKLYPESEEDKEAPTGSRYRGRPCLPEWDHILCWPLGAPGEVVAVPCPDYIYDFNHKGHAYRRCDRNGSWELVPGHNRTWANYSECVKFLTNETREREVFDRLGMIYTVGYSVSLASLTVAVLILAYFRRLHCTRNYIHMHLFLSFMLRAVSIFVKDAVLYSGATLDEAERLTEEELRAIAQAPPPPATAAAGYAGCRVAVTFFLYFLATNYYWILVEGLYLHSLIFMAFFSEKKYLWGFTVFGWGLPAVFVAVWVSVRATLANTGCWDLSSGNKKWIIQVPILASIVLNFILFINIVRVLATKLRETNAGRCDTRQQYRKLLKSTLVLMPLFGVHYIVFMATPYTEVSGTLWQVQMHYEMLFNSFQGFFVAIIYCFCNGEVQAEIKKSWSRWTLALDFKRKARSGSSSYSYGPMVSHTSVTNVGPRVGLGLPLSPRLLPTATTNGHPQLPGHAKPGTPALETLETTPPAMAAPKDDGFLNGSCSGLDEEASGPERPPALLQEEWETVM
Format: cell-based
With O=C1NC(C2CCCCC2)=NC12CCN(S(=O)(=O)/C=C/c1cc3nc[nH]c3cc1C(F)(F)F)CC2 [Compound 499, 2-cyclohexyl-8-[(E)-2-(6-trifluoromethyl-1H-benzimidazol-5-yl)-ethenesulfonyl]-1,3,8-triaza-spiro[4.5]dec-1-en-4-one] the “cAMP production activity (%)” value was 40%.
Cc1cc(C(=O)N(C)C)ccc1CCS(=O)(=O)N1CCC2(CC1)N=C(c1cccc(-c3cccnc3)c1)NC2=O [Compound 173, 3,N,N-trimethyl-4-{2-[4-oxo-2-(3-pyridin-3-yl-phenyl)-1,3,8-triaza-spiro[4.5]dec-1-ene-8-sulfonyl]-ethyl}-benzamide] was tested, and the “cAMP production activity (%)” value was 71%.
In the case of NCCn1ccc2c(/C=C/S(=O)(=O)N3CCC4(CC3)N=C(C3CCCCC3)NC4=O)cccc21 [Compound 686, 8-{(E)-2-[1-(2-Amino-ethyl)-1H-indol-4-yl]-ethenesulfonyl}-2-cyclohexyl-1,3,8-triaza-spiro[4.5]dec-1-en-4-one], the “cAMP production activity (%)” value is reported as 22%.
With Cc1cc(N(C)C(N)=O)cc(C)c1CCS(=O)(=O)N1CCC2(CC1)N=C(CCCCCc1ccccc1)NC2=O [Compound 1340, 1-(3,5-dimethyl-4-{2-[4-oxo-2-(5-phenyl-pentyl)-1,3,8-triaza-spiro[4.5]dec-1-ene-8-sulfonyl]-ethyl}-phenyl)-1-methyl-urea] the “cAMP production activity (%)” value was 84%.
With Cc1cc(N(C)C(N)=O)cc(C)c1CCS(=O)(=O)N1CCC2(CC1)N=C(CCCCCCCCCF)NC2=O [Compound 1327, 1-(4-{2-[2-(9-Fluoro-nonyl)-4-oxo-1,3,8-triaza-spiro[4.5]dec-1-ene-8-sulfonyl]-ethyl}-3,5-dimethyl-phenyl)-1-methyl-urea] the “cAMP production activity (%)” value was 92%.
Cc1cc(C(=O)N(C)C)ccc1CCS(=O)(=O)N1CCC2(CC1)N=C(c1cccc(S(C)(=O)=O)c1)NC2=O [Compound 110, 4-{2-[2-(3-methanesulfonyl-phenyl)-4-oxo-1,3,8-triaza-spiro[4.5]dec-1-ene-8-sulfonyl]-ethyl}-3,N,N-trimethyl-benzamide] was tested, and the “cAMP production activity (%)” value was 25%.
With CC(=O)Nc1ccc(CCS(=O)(=O)N2CCC3(CC2)N=C(C2CCC(=CCC(F)F)CC2)NC3=O)c(C)c1 (stereo not shown) [Compound 1076, N-[4-(2-{2-[4-(3,3-difluoro-propylidene)-cyclohexyl]-4-oxo-1,3,8-triaza-spiro[4.5]dec-1-ene-8-sulfonyl}-ethyl)-3-methyl-phenyl]-acetamide] the “cAMP production activity (%)” value was 88%.
In the case of Cc1cc(N2C(=O)C[C@H](NC(=O)OC(C)(C)C)C2=O)ccc1/C=C/S(=O)(=O)N1CCC2(CC1)N=C(c1cccc(C(F)(F)F)c1)NC2=O [Compound 525, [(S)-1-(3-methyl-4-{(E)-2-[4-oxo-2-(3-trifluoromethyl-phenyl)-1,3,8-triaza-spiro[4.5]dec-1-ene-8-sulfonyl]-vinyl}-phenyl)-2,5-dioxo-pyrrolidin-3-yl]-carbamic acid tert-butyl ester], the “cAMP production activity (%)” value is reported as 14%.
For Cc1cc(C(=O)N2CCC(O)CC2)cc(C)c1/C=C/S(=O)(=O)N1CCC2(CC1)N=C(c1cccc(C(F)(F)F)c1)NC2=O [Compound 384, 8-{(E)-2-[4-(4-hydroxy-piperidine-1-carbonyl)-2,6-dimethyl-phenyl]-ethenesulfonyl}-2-(3-trifluoromethyl-phenyl)-1,3,8-triaza-spiro[4.5]dec-1-en-4-one], the “cAMP production activity (%)” value was 61%.
Cc1cc(N(C)C(N)=O)cc(C)c1/C=C/[S@TB3](=O)(=O)N1CCC2(CC1)N=C(CCCC/C=C/c1ccccc1)NC2=O [Compound 1120, 1-(3,5-dimethyl-4-{(E)-2-[4-oxo-2-((E)-6-phenyl-hex-5-enyl)-1,3,8-triaza-spiro[4.5]dec-1-ene-8-sulfonyl]-vinyl}-phenyl)-1-methyl-urea] was tested, and the “cAMP production activity (%)” value was 124%.
Cc1ccc(C(=O)N2CCN(C)CC2)cc1CCS(=O)(=O)N1CCC2(CC1)N=C(c1cccc(OC(F)(F)F)c1)NC2=O [Compound 414, 8-{2-[2-methyl-5-(4-methyl-piperazine-1-carbonyl)-phenyl]-ethanesulfonyl}-2-(3-trifluoromethoxy-phenyl)-1,3,8-triaza-spiro[4.5]dec-1-en-4-one] was tested, and the “cAMP production activity (%)” value was 69%.
CC(=O)N(C)c1c(C)cc(/C=C/S(=O)(=O)N2CCC3(CC2)N=C(C2CCC(C)CC2)NC3=O)cc1C (stereo not shown) [Compound 584, N-(2,6-dimethyl-4-{(E)-2-[2-(4-methyl-cyclohexyl)-4-oxo-1,3,8-triaza-spiro[4.5]dec-1-ene-8-sulfonyl]-vinyl}-phenyl)-N-methyl-acetamide] was tested, and the “cAMP production activity (%)” value was 24%.
Cc1cc(C(=O)N2CCC(O)CC2)c(F)cc1CCS(=O)(=O)N1CCC2(CC1)N=C(c1cccc(C(F)(F)F)c1)NC2=O [Compound 419, 8-{2-[5-fluoro-4-(4-hydroxy-piperidine-1-carbonyl)-2-methyl-phenyl]-ethanesulfonyl}-2-(3-trifluoromethyl-phenyl)-1,3,8-triaza-spiro[4.5]dec-1-en-4-one] was tested, and the “cAMP production activity (%)” value was 96%.
Cc1cc(N2C(=O)NC(C)C2=O)cc(C)c1/C=C/S(=O)(=O)N1CCC2(CC1)N=C(C1CCC(C)CC1)NC2=O (stereo not shown) [Compound 582, 3-(3,5-dimethyl-4-{(E)-2-[2-(4-methyl-cyclohexyl)-4-oxo-1,3,8-triaza-spiro[4.5]dec-1-ene-8-sulfonyl]-vinyl}-phenyl)-5-methyl-imidazolidine-2,4-dione] was tested, and the “cAMP production activity (%)” value was 104%.
With CCCOC1CCC(C2=NC3(CCN(S(=O)(=O)CCc4ccc(NC(C)=O)cc4C)CC3)C(=O)N2)CC1 (stereo not shown) [Compound 911, N-(3-methyl-4-{2-[4-oxo-2-(4-propoxy-cyclohexyl)-1,3,8-triaza-spiro[4.5]dec-1-ene-8-sulfonyl]-ethyl}-phenyl)-acetamide] the “cAMP production activity (%)” value was 71%.
C=CCCCCCCCC(=O)N(C)c1cc(C)c(CCS(=O)(=O)N2CCC3(CC2)N=C(CCCCC=C)NC3=O)c(C)c1 [Compound 1443, dec-9-enoic acid {4-[2-(2-hex-5-enyl-4-oxo-1,3,8-triaza-spiro[4.5]dec-1-ene-8-sulfonyl)-ethyl]-3,5-dimethyl-phenyl}-methyl-amide] was tested, and the “cAMP production activity (%)” value was 61%.
With Cc1cc(C(=O)N2CCN(CCO)CC2)ccc1CCS(=O)(=O)N1CCC2(CC1)N=C(c1cccc(OC(F)(F)F)c1)NC2=O [Compound 416, 8-(2-{4-[4-(2-Hydroxy-ethyl)-piperazine-1-carbonyl]-2-methyl-phenyl}-ethanesulfonyl)-2-(3-trifluoromethoxy-phenyl)-1,3,8-triaza-spiro[4.5]dec-1-en-4-one] the “cAMP production activity (%)” value was 66%.
O=C1NC(C2CCCCC2)=NC12CCN(S(=O)(=O)CC(O)c1cccc3c1ccn3C[C@H](O)CO)CC2 (stereo partly drawn) [Compound 1374, 2-Cyclohexyl-8-{2-[1-((S)-2,3-dihydroxy-propyl)-1H-indol-4-yl]-2-hydroxy-ethanesulfonyl}-1,3,8-triaza-spiro[4.5]dec-1-en-4-one] was tested, and the “cAMP production activity (%)” value was 33%.
In the case of CCCCC1CCC(NC2=NC3(CCN(S(=O)(=O)CCc4ccc(C(=O)N(C)C)cc4C)CC3)C(=O)N2)CC1 (stereo not shown) [Compound 1404, 4-{2-[2-(4-butyl-cyclohexylamino)-4-oxo-1,3,8-triaza-spiro[4.5]dec-1-ene-8-sulfonyl]-ethyl}-3,N,N-trimethyl-benzamide], the “cAMP production activity (%)” value is reported as 64%.
With Cc1cc(NCC(=O)N2CCN(C)CC2)ccc1/C=C/S(=O)(=O)N1CCC2(CC1)N=C(c1cccc(OC(F)(F)F)c1)NC2=O [Compound 528, 8-((E)-2-{2-methyl-4-[2-(4-methyl-piperazin-1-yl)-2-oxo-ethylamino]-phenyl}-ethenesulfonyl)-2-(3-trifluoromethoxy-phenyl)-1,3,8-triaza-spiro[4.5]dec-1-en-4-one] the “cAMP production activity (%)” value was 55%.
With CC(C)n1ccc2c(CCS(=O)(=O)N3CCC4(CC3)N=C(C3CCCCC3)NC4=O)cccc21 [Compound 650, 2-cyclohexyl-8-[2-(1-isopropyl-1H-indol-4-yl)-ethanesulfonyl]-1,3,8-triaza-spiro[4.5]dec-1-en-4-one] the “cAMP production activity (%)” value was 55%.
In the case of O=C1NC(CCCCCCCCC(F)(F)F)=NC12CCN(S(=O)(=O)CCc1cccc3c1ccn3C[C@H](O)CO)CC2 [Compound 789, 8-{2-[1-((S)-2,3-dihydroxy-propyl)-1H-indol-4-yl]-ethanesulfonyl}-2-(9,9,9-trifluoro-nonyl)-1,3,8-triaza-spiro[4.5]dec-1-en-4-one], the “cAMP production activity (%)” value is reported as 157%.
In the case of CC(=O)Nc1ccc(-c2ccc(S(=O)(=O)N3CCC4(CC3)N=C(C3CCCCC3)NC4=O)s2)c(C)c1 [Compound 332, N-{4-[5-(2-cyclohexyl-4-oxo-1,3,8-triaza-spiro[4.5]dec-1-ene-8-sulfonyl)-thiophen-2-yl]-3-methyl-phenyl}-acetamide], the “cAMP production activity (%)” value is reported as 90%.
With CC1(C)OC[C@H](Cn2ccc3c(/C=C/S(=O)(=O)N4CCC5(CC4)N=C(C4CCCCC4)NC5=O)c(F)ccc32)O1 [Compound 500, 2-cyclohexyl-8-{(E)-2-[1-((S)-2,2-dimethyl-[1,3]dioxolan-4-ylmethyl)-5-fluoro-1H-indol-4-yl]-ethenesulfonyl}-1,3,8-triaza-spiro[4.5]dec-1-en-4-one] the “cAMP production activity (%)” value was 61%.
For CCCCCCCC#CC1=NC2(CCN([S@TB17](=O)(=O)CCc3c(C)cc(N(C)C(N)=O)cc3C)CC2)C(=O)N1 [Compound 1083, 1-{3,5-dimethyl-4-[2-(2-non-1-ynyl-4-oxo-1,3,8-triaza-spiro[4.5]dec-1-ene-8-sulfonyl)-ethyl]-phenyl}-1-methyl-urea], the “cAMP production activity (%)” value was 113%.

From patent US9169254B2, “Spiroimidazolone derivative” (Chugai Seiyaku Kabushiki Kaisha, priority 2009, dated 2015)
